Experimental data reported in patent publication US20160108381A1, “DNA POLYMERASES AND MUTANTS THEREOF” (LIFE TECHNOLOGIES CORPORATION, priority 2001, published 2016).

T1: Clostridium thermosulfurogenes DNA polymerase, N-terminal His6 tag (Cth-His), SEQ ID NO:15 (Thermoanaerobacterium thermosulfurigenes, UniProt Q6X9R5)
T1 sequence (Q6X9R5 with tags, fused parts or gaps): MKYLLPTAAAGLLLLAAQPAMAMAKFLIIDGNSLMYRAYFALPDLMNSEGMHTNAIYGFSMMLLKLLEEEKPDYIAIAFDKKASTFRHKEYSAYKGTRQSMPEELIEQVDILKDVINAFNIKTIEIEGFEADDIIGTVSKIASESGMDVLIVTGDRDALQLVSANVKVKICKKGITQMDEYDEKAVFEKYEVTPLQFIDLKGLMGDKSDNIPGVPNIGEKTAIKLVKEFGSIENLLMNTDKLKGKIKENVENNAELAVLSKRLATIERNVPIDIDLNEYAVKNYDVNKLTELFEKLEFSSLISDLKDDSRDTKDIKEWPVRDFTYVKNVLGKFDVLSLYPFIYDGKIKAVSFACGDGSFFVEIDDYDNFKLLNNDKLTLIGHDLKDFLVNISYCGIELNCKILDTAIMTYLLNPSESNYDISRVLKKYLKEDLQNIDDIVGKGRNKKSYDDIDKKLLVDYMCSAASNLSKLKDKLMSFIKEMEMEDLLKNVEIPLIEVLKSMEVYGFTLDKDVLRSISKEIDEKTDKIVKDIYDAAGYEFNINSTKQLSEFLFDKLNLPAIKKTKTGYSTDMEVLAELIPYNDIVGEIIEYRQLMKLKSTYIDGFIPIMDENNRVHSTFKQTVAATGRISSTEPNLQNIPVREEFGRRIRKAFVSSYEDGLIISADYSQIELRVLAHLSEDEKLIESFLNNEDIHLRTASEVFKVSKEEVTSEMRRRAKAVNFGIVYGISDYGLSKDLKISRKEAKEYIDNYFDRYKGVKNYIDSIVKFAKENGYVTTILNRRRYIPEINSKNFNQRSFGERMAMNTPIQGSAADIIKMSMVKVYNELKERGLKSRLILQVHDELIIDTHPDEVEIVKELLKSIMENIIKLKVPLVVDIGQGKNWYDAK

T2: Clostridium stercorarium DNA polymerase, N-terminal His6 tag (Cst-His), SEQ ID NO:14 (Thermoclostridium stercorarium, UniProt L7VMI6)
T2 sequence (L7VMI6 with tags, fused parts or gaps): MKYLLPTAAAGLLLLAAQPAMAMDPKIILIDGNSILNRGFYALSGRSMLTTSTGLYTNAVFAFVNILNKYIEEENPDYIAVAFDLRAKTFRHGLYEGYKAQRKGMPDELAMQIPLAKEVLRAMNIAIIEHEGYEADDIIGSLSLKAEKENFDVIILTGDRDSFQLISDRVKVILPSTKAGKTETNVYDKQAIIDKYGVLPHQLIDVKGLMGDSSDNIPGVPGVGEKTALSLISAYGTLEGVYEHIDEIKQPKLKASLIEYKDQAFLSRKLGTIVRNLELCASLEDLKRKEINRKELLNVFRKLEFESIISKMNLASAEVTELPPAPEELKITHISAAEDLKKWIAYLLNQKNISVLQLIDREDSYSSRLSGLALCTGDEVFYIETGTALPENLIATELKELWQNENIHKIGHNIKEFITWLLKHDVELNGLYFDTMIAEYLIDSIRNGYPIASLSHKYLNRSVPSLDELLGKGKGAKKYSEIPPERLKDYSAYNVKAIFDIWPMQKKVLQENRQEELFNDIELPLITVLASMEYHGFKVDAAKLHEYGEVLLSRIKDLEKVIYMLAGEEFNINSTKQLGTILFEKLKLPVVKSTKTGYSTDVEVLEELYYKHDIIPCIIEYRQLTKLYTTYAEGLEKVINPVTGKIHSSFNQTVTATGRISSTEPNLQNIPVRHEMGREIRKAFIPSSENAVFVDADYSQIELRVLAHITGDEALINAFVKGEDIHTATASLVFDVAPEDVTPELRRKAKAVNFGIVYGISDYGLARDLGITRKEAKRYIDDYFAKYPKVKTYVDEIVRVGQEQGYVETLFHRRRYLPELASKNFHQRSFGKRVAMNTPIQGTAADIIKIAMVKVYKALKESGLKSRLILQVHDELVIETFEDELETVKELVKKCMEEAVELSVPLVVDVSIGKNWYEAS

B1: Clostridium stercorarium DNA polymerase, N-terminal His6 tag (Cst-His), SEQ ID NO:14 (Thermoclostridium stercorarium subsp. stercorarium DSM 8532) (protein)
chain: T2 sequence (L7VMI6 with tags, fused parts or gaps)
B2: Clostridium thermosulfurogenes DNA polymerase, N-terminal His6 tag (Cth-His), SEQ ID NO:15 (Thermoanaerobacterium thermosulfurigenes) (protein)
chain: T1 sequence (Q6X9R5 with tags, fused parts or gaps)

Key:
[1] = molecular target: T1, Clostridium thermosulfurogenes DNA polymerase, N-terminal His6 tag (Cth-His), SEQ ID NO:15; assay: Steady-state kinetics, DNA- and RNA-dependent polymerase activity; settings: Table 34, DNA template, 2 mM MgCl2, 45 °C per footnote
Text: (§1) Subcloning of genes for Cst and Cth DNA polymerases. In order to improve expression and simplify purification of Cst and Cth DNA polymerase, the genes were subcloned downstream of a T7 promoter and an amino-terminal His6 tag sequence was introduced using Gateway cloning technology (Invitrogen Corporation, Carlsbad, Calif.). The sequence of the DNA oligonucleotide used at the 5′ end of the Cst gene was: 5′-[…] ATAGAC 3′ (SEQ ID NO:37). The sequence of the DNA oligonucleotide used at the 5′ end of the Cth gene was: 5′-[…] […]-3′ (SEQ ID NO:38). The sequence of the DNA oligonucleotide used at the 3′ end of each gene was the same: 5′-[…] […] 3′ (SEQ ID NO:39). Purified pET26B plasmid DNA (Novagen Inc., Madison, Wis.) bearing the gene for Cst or Cth DNA polymerase was amplified by PCR utilizing the primers listed above and Platinum Taq HiFi DNA polymerase (Invitrogen Corporation, Carlsbad, Calif.). PCR products purified by agarose gel electrophoresis were cloned into Gateway vector pDON21 and transferred by recombination into vector pDEST17. […] Each final recombinant plasmid was transformed into the E. coli expression host BL21-AI (Invitrogen Corporation, Carlsbad, Calif.).
(§2) Purification of Cst-His and Cth-His DNA polymerases. E. coli cells (BL21AI) bearing the plasmid pDEST17 with the gene for Cst-His or Cth-His DNA polymerase were grown in 2.8-1 Fembach flasks in LB broth containing 50 μg/ml ampicillin at 37° C. After the culture reached an A590 of 1.0, expression of DNA polymerase was induced by the addition of 0.2% arabinose for 3 hr. Cells were harvested by centrifugation and stored at −70° C.
(§3) Steady-state kinetic measurements.
(§4) The assays were conducted in the presence of 1.5 mM MgCl2 at 55° C. for all enzymes except the Caldibacillus cellulovorans CompA.2 enzyme where 2 mM MgCl2 and 45° C. were used.

[2] = molecular target: T2, Clostridium stercorarium DNA polymerase, N-terminal His6 tag (Cst-His), SEQ ID NO:14; assay: as above; settings: Table 34, DNA template, 2 mM MgCl2, 45 °C per footnote
Text: as §1, §2, §3, §4

[3] = molecular target: T3, Thermotoga neapolitana (Tne) DNA polymerase, mutated to eliminate 3′ to 5′ and 5′ to 3′ exonuclease activity (Thermotoga neapolitana, UniProt B9K7T2); assay: as above; assay type: biochemical
T3 construct: mutated to eliminate 3'-5' and 5'-3' exonuclease activity as in US 6,306,588 (recalled, unsure: D137A and D323A)
Experimental: (§5) Thermotoga neapolitana (Tne) DNA polymerase mutated to eliminate 3′ to 5′ and 5′ to 3′ exonuclease activity was cloned, engineered and purified as described in U.S. Pat. No. 6,306,588. SuperScript II reverse transcriptase (SS II RT) was from Invitrogen Corporation, Carlsbad, Calif.
as §3
(§6) The catalytic rate constant kcat and the Michaelis constant KM were determined for both the DNA-dependent and RNA-dependent polymerase activities for the polypeptides of the invention and these parameters were compared to those of Tne DNA polymerase enzyme and […]™ II reverse transcriptase. […]

[4] = molecular target: SuperScript II reverse transcriptase (SSII, SS II RT), a modified M-MLV reverse transcriptase (Moloney murine leukemia virus isolate Shinnick, UniProt P03355); assay: as above; assay type: biochemical
Experimental: as §5, §3, §6

[5] = substrate: Cc1cn([C@H]2C[C@H](O)[C@@H](COP(=O)(O)OP(=O)(O)OP(=O)(O)O)O2)c(=O)[nH]c1=O; assay: purified protein, by the assay type; settings: 55 °C, mean ± SD
[6] = Table 34, DNA template, 2 mM MgCl2, 45 °C per footnote
[7] = read-out: Km DNA (dGTP), Table 34, DNA template, 2 mM MgCl2, 45 °C per footnote
[8] = other: Table 40, (dA)270•(dT)40, dTTP
[9] = other: Table 40, (rA)250•(dT)30, dTTP

T3 sequence (B9K7T2 entry or part of it, stated change not applied): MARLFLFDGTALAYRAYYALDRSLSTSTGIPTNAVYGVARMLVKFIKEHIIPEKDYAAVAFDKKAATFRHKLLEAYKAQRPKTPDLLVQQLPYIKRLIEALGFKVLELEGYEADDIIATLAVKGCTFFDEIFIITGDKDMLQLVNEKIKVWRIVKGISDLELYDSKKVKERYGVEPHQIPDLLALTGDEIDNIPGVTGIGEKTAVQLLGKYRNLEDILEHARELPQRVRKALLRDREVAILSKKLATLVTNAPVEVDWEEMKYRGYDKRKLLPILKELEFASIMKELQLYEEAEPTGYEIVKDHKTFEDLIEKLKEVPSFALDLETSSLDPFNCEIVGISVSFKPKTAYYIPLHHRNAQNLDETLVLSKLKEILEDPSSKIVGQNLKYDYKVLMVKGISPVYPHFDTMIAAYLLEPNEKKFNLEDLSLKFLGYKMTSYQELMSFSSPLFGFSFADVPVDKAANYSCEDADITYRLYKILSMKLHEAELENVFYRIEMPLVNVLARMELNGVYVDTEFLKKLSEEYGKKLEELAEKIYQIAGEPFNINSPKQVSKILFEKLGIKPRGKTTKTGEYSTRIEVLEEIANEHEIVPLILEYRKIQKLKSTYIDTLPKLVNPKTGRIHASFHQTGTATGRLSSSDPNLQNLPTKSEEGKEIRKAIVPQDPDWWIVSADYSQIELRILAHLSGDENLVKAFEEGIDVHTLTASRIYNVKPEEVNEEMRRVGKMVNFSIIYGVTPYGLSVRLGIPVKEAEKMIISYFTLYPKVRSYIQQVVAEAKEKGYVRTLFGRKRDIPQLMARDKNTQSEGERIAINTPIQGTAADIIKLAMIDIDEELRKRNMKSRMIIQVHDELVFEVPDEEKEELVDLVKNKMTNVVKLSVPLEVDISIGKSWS

| Molecule | Kcat DNA (dGTP) [1] | Km ([1]; read-out: Km DNA (dGTP)) | Kcat DNA (dGTP) [2] | Km ([2]; read-out: Km DNA (dGTP)) | Kcat DNA (dGTP) [3, 6] | kCAT DNA-DNA ([3]; Table 40, (dC)n•(dG)35, dGTP, 72 °C, mean ± SD) | Km [3, 7] | Kcat DNA (dGTP) [4, 6] | kCAT DNA-DNA ([4]; Table 40, (dC)n•(dG)35, dGTP, 37 °C, mean ± SD) | Km [4, 7] | kcat [5, 8] | kcat [5, 9] |
| --- | --- | --- | --- | --- | --- | --- | --- | --- | --- | --- | --- | --- |
| Nc1nc2c(ncn2[C@H]2C[C@H](O)[C@@H](COP(=O)(O)OP(=O)(O)OP(=O)(O)O)O2)c(=O)[nH]1 [dGTP] | 57 s⁻¹ | 17.1 µM | 11.5 s⁻¹ | 0.5 µM | 17.5 s⁻¹ | 130 ± 32 s⁻¹ | 17.2 µM | 15.4 s⁻¹ | 16 ± 2 s⁻¹ | 2.4 µM |  |  |
| B1 |  |  |  |  |  |  |  |  |  |  | 40 ± 13 s⁻¹ | 88 ± 5 s⁻¹ |
| B2 |  |  |  |  |  |  |  |  |  |  | 28 ± 1 s⁻¹ | 16 ± 1 s⁻¹ |
